According to ChEMBL document CHEMBL1201862, “PubChem BioAssay data set” (2004):
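96-well plates; 48 h exposure; 5 concentrations. Endpoints by linear interpolation between flanking doses. Not reached: highest tested concentration assigned. GI50 is the concentration that inhibits growth by half.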 The source made the active and inactive calls. No stated cut-off is given here; in the data, active = GI50 up to about 1.1 µM and inactive = higher.

Experiments:
Experiment in all cases: NCI anticancer screen, dose series, 48 h
[1] = test system: 786-0
[2] = test system: CAKI-1
[3] = test system: SNB-19
[4] = test system: LOX IMVI
[5] = test system: NCI-H226
[6] = test system: HOP-92
[7] = test system: HL-60
[8] = test system: IGROV-1
[9] = test system: HCT-15
[10] = test system: NCI-H23
[11] = test system: SK-MEL-28
[12] = test system: KM12
[13] = test system: HOP-62
[14] = test system: COLO 205
[15] = test system: K562
[16] = test system: HT-29
[17] = test system: SF-268

For `COc1cccc(-c2cc(C(=O)Nc3ccc(Cl)cc3)nc(N)n2)c1`, the GI50 [1] was 55 µM (inactive), the GI50 [2] was > 100 µM (inactive) and the GI50 [3] was 70.8 µM (inactive). The GI50 [4] was 66.1 µM (inactive), the GI50 [5] was > 100 µM (inactive) and the GI50 [6] was > 100 µM (inactive). For the same molecule, the GI50 [7] was 32.7 µM (inactive), the GI50 [8] was 50.7 µM (inactive) and the GI50 [9] was 41.5 µM. For the same molecule, the GI50 [10] was 75 µM (inactive), the GI50 [11] was 86.9 µM (inactive) and the GI50 [12] was 43.7 µM (inactive). The GI50 [13] was > 100 µM (inactive), the GI50 [14] was 21.4 µM (inactive) and the GI50 [15] was 40.5 µM (inactive). The GI50 [16] was 45.5 µM (inactive) and the GI50 [17] was 65.2 µM (inactive).
In the case of `N/N=C(\CC1OC(=O)c2ccccc21)c1ccco1` (stereo unspecified), the GI50 [1] is reported as < 0.01 µM (active), the GI50 [2] is reported as > 100 µM (inactive) and the GI50 [3] is reported as > 100 µM (inactive). For the same molecule, the GI50 [4] was 80 µM (inactive), the GI50 [5] was > 100 µM (inactive) and the GI50 [6] was > 100 µM (inactive). For the same molecule, the GI50 [7] was > 100 µM (inactive), the GI50 [8] was > 100 µM (inactive) and the GI50 [9] was > 100 µM. The GI50 [10] was > 100 µM (inactive), the GI50 [11] was > 100 µM (inactive) and the GI50 [12] was > 100 µM (inactive). The GI50 [14] was > 100 µM (inactive), the GI50 [15] was 50 µM (inactive) and the GI50 [16] was > 100 µM (inactive). The GI50 [17] was > 100 µM (inactive).
`CC1NOC(=O)C1/N=N/c1ccc(Cl)cc1Cl` (stereo unspecified) was tested, and the GI50 [1] was 18.7 µM (inactive), the GI50 [2] was 24.4 µM (inactive) and the GI50 [3] was 22.6 µM (inactive). For the same molecule, the GI50 [4] was 27.2 µM (inactive), the GI50 [5] was 25.4 µM (inactive) and the GI50 [6] was 19.8 µM (inactive). The GI50 [7] was 16 µM (inactive), the GI50 [8] was 26.9 µM (inactive) and the GI50 [9] was 18.5 µM. For the same molecule, the GI50 [10] was 20.8 µM (inactive), the GI50 [11] was 38.9 µM (inactive) and the GI50 [12] was 15.1 µM (inactive). For the same molecule, the GI50 [13] was 43 µM (inactive), the GI50 [14] was 20 µM (inactive) and the GI50 [15] was 25.2 µM (inactive). For the same molecule, the GI50 [16] was 32.8 µM (inactive) and the GI50 [17] was 32.2 µM (inactive).
`COC(=O)c1c/c(=N\NC(=O)CC(=O)Nc2ccc(C)cc2)c2ccccc2o1` was tested, and the GI50 [1] was > 100 µM (inactive), the GI50 [2] was > 100 µM (inactive) and the GI50 [3] was > 100 µM (inactive). The GI50 [4] was > 100 µM (inactive), the GI50 [5] was > 100 µM (inactive) and the GI50 [6] was > 100 µM (inactive). For the same molecule, the GI50 [7] was > 100 µM (inactive), the GI50 [8] was > 100 µM (inactive) and the GI50 [9] was > 100 µM. The GI50 [10] was > 100 µM (inactive), the GI50 [11] was > 100 µM (inactive) and the GI50 [12] was > 100 µM (inactive). For the same molecule, the GI50 [13] was > 100 µM (inactive), the GI50 [14] was > 100 µM (inactive) and the GI50 [15] was > 100 µM (inactive). The GI50 [16] was > 100 µM (inactive) and the GI50 [17] was > 100 µM (inactive).
In the case of `CCOC(=O)C1S/C(=N\c2ccc(Cl)cc2)N=C1C` (stereo unspecified), the GI50 [1] is reported as 16.9 µM (inactive), the GI50 [3] is reported as 19.2 µM (inactive) and the GI50 [4] is reported as 18.6 µM (inactive). For the same molecule, the GI50 [5] was 25.6 µM (inactive), the GI50 [6] was 15.9 µM (inactive) and the GI50 [7] was 23 µM (inactive). The GI50 [8] was 19.5 µM (inactive), the GI50 [9] was 16.1 µM and the GI50 [10] was 18 µM (inactive). The GI50 [11] was 20.5 µM (inactive), the GI50 [12] was 18.2 µM (inactive) and the GI50 [13] was 20.2 µM (inactive). For the same molecule, the GI50 [14] was 17.5 µM (inactive), the GI50 [15] was 19.4 µM (inactive) and the GI50 [16] was 17.1 µM (inactive). The GI50 [17] was 17 µM (inactive).
In the case of `CN1CCN(CCNc2ccc(CO)c3sc4ccccc4c(=O)c23)CC1`, the GI50 [1] is reported as 5.87 µM (inactive), the GI50 [2] is reported as 11.9 µM (inactive) and the GI50 [3] is reported as 21 µM (inactive). The GI50 [5] was 13.2 µM (inactive), the GI50 [6] was 13.4 µM (inactive) and the GI50 [7] was 8.93 µM (inactive). The GI50 [8] was 11.1 µM (inactive), the GI50 [9] was 6.32 µM and the GI50 [10] was 12.9 µM (inactive). The GI50 [11] was 15.5 µM (inactive), the GI50 [12] was 10.9 µM (inactive) and the GI50 [13] was 5.06 µM (inactive). The GI50 [14] was 8.77 µM (inactive), the GI50 [15] was 3.84 µM (inactive) and the GI50 [16] was 4.15 µM (inactive). The GI50 [17] was 11.6 µM (inactive).
`CN(C)CCCSc1c2ccccc2nc2cc(NCC(=O)Nc3ccccc3-c3ccccc3NC(=O)CNc3ccc4c(SCCCN(C)C)c5ccccc5nc4c3)ccc12` was tested, and the GI50 [1] was > 100 µM (inactive), the GI50 [2] was > 100 µM (inactive) and the GI50 [3] was > 100 µM (inactive). For the same molecule, the GI50 [4] was > 100 µM (inactive), the GI50 [5] was > 100 µM (inactive) and the GI50 [6] was > 100 µM (inactive). For the same molecule, the GI50 [7] was 18.3 µM (inactive), the GI50 [8] was > 100 µM (inactive) and the GI50 [9] was > 100 µM. The GI50 [10] was > 100 µM (inactive), the GI50 [11] was > 100 µM (inactive) and the GI50 [12] was 84.3 µM (inactive). The GI50 [13] was > 100 µM (inactive), the GI50 [14] was 45.1 µM (inactive) and the GI50 [15] was 71.4 µM (inactive). For the same molecule, the GI50 [16] was > 100 µM (inactive) and the GI50 [17] was > 100 µM (inactive).
